Assays:
[1] = test system: CD4+ and CD8+ T cell populations; experiment: CD4/CD8 population analysis of splenocytes incubated with stimulated APCs; assay type: cell-based, Swiss Webster mice; conditions: 5 days
Procedure: The spleens were collected from the same mice that were harvested APCs from the intraperitoneal cavity, and the single-cell suspensions of the spleens were introduced into the stimulated APCs with a ratio of 1:1 (splenocytes:APCs). After a five-day incubation at 37° C. and 5% CO2, the splenocytes were harvested from the supernatant, washed with Hank's balanced salt solution and labeled with anti-mouse CD4 PE and anti-mouse CD8a FITC. The cells were analyzed for CD4^+ and CD8^+ T cell populations using BD Accuri® C6 flow cytometer.

dendritic cells (DC 2.4) = experiment: Nitric oxide release from dendritic cells exposed to RSV F-VLP vaccine; assay type: cell-based
Procedure: For in vitro analysis of immunogenicity of the F-VLP, dendritic cells (DC 2.4) were cultured and exposed to varying concentrations of the vaccine. The optimal concentration was then used to screen four different adjuvants (Poly I:C, Alum, MPL and MF59). Evaluation of innate and adaptive immunity was done using the nitric oxide assay and expression of cell surface markers using the C6 flow cytometer.
a. Following exposure to an antigen, dendritic cells (DC 2.4) are known to release nitric oxide and express cell surface markers that signal CD4+ Helper T cells and/or CD8+ Cytotoxic T cells.

RAW 264.7 cells = experiment: MTS cell cytotoxicity assay; assay type: cell-based, mouse; conditions: 10 mg/mL, positive control, relative to DMEM-treated cells
Procedure: Particles were tested for their cytotoxic properties using MTS assay (Promega), which determines cell viability in culture. RAW 264.7 cells (mouse leukemic monocyte macrophage cell line) were grown in DMEM medium, supplemented with 10% fetal bovine serum and 1% antibiotic in a cell culture flask. The cell culture media was then removed and cells were treated with 2 mL trypsin-EDTA. Thus, cells were detached from the cell culture flask and suspended in 1 mL complete DMEM media. Cell count of the resulting suspension was determined by trypan blue dye exclusion method using Bio-Rad counter (TC10™ Automated cell counter, Bio-Rad, CA). Cell suspension equivalent to 10,000 cells was plated in a 96 well cell culture plate and complete DMEM media was added to attain a volume of 100 μL per well. Plate was incubated for 24 h and various concentrations (2, 1, 0.5, 0.25, 0.125, 0.0625 mg/mL) of 4T07 antigen loaded particles were added to wells (n=3 for each concentration) and again incubated for 24 h. Cells treated with DMEM media alone were used as a negative control and cells treated with benzalkonium chloride (10 mg/ml) were chosen as a positive control (n=3 each). […] The plate was incubated for 4 h at 37° C. in a humidified, 5% CO2 chamber and absorbance was recorded at 490 nm using a UV plate reader (BioTek instruments Inc., VT).

APCs = experiment: Nitric oxide assay (Greiss) on harvested APCs; assay type: cell-based, Swiss Webster mice; conditions: 2.5 μg adjuvant in MP + 2.5 μg M2p in MP, 20 hours
Procedure: 5 Sodium thioglycolate was injected into the intraperitoneal cavity of Swiss Webster (6-8 week old) with the amount of 40 mg per mouse to recruit the APCs (13)(14). After four days, these mice were euthanized and 5.0 mL of PBS was injected intraperitoneally into each mouse to harvest cells from the cavity. Collected cells were washed with PBS twice before adding the complete RPMI media. After these APCs adhered to the bottom of a T75 flask, the supernatant was removed and complete RPMI media was added in the presence of ConA ([…]).
The harvested APCs (5×10^4 cells/well) were seeded in Dulbecco's complete media in a 96 well plate. The soluble and particulate vaccines (with and without adjuvants) were introduced to the APCs with the same amount of antigen (2.5 μg) and adjuvant (2.5 μg). The induced APCs were incubated for 20 hours at 37° C. % CO2. Supernatants were collected and the amount of nitric oxide released in each group was analyzed using the Greiss chemical method (equal volumes of 1% sulphanilamide and 0.1% N-(1-naphthylethylenediamine)). The plate was read at a wavelength of 540 nm (15).

monophospholyl lipid A [MPL]
CD8+ T cell population compared to M2p MP treated group [1]: elevated

Poly I:C
amount of nitric oxide released, vaccine with adjuvant compared to vaccine alone (dendritic cells (DC 2.4)): much higher compared to vaccine alone

CCCCCCCCCCCCC[N+](C)(C)Cc1ccccc1 [benzalkonium chloride]
cell viability (RAW 264.7 cells): 21%

B1: Flagellin: flagellin from Salmonella typhimurium, adjuvant in microparticles (protein, UniProt P06179 2-495, looked up)
Flagellin: AQVINTNSLSLLTQNNLNKSQSALGTAIERLSSGLRINSAKDDAAGQAIANRFTANIKGLTQASRNANDGISIAQTTEGALNEINNNLQRVRELAVQSANSTNSQSDLDSIQAEITQRLNEIDRVSGQTQFNGVKVLAQDNTLTIQVGANDGETIDIDLKQINSQTLGLDTLNVQQKYKVSDTAATVTGYADTTIALDNSTFKASATGLGGTDQKIDGDLKFDDTTGKYYAKVTVTGGTGKDGYYEVSVDKTNGEVTLAGGATSPLTGGLPATATEDVKNVQVANADLTEAKAALTAAGVTGTASVVKMSYTDNNGKTIDGGLAVKVGDDYYSATQNKDGSISINTTKYTADDGTSKTALNKLGGADGKTEVVSIGGKTYAASKAEGHNFKAQPDLAEAAATTTENPLQKIDAALAQVDTLRSDLGAVQNRFNSAITNLGNTVNNLTSARSRIEDSDYATEVSNMSRAQILQQAGTSVLAQANQVPQNVLSLLR
CD4+ T cell population compared to M2p MP treated group [1]: elevated CD4+ T cell population | nitric oxide level compared to M2p MP group (APCs): significantly higher
